Measurements as given in patent publication US6861260B2, “Lipid membrane, method for measuring membrane permeability, and method for screening” (Chugai Seiyaku Kabushiki Kaisha, priority 2000, dated 2005).
Like-named read-outs stand apart in the source and are kept apart here. Marks after values point to notes of the source that are not given here.

Assays:
[1] = Artificial lipid membrane permeability measurement (96-well filter plate, absorbance); assay type: in vitro ADME; design: Permeability coefficient (P), Example 2 / Permeability coefficient (P), Comparative Example 1: unit: cm/s; conditions: 0.5 mmol/L sample; for Papp at 0.5 mmol/L: PAMPA; for Permeability coefficient (P), Comparative Example 1: membrane of Comparative Example 1 (phosphatidylcholine, cholesterol and 1,9-decadiene 2:1:97)
[2] = literature data, References *1 to *4; cited from earlier work
[3] = membrane of Example 1 (phosphatidylcholine 2, cholesterol 1, stearic acid 0.2 %, w/w in 1,7-octadiene), pH 7.0, read-out: Permeability coefficient (P), Example 1
[4] = membrane of Example 2 (phosphatidylcholine 0.75, phosphatidylethanolamine 0.75, phosphatidylserine 0.25, phosphatidylinositol 0.25, cholesterol 1 %, w/w in 1,7-octadiene), pH 6.5
[5] = membrane of Example 3 (phosphatidylcholine and 1,6-heptadiene 2:98), buffer pH 6.5 to pH 7.0, read-out: Permeability coefficient (P), Example 3
[6] = membrane of Example 4 (phosphatidylcholine and 1,7-octadiene 2:98), buffer pH 6.5 to pH 7.0, read-out: Permeability coefficient (P), Example 4
[7] = membrane of Example 5 (phosphatidylcholine and 1,8-nonadiene 2:98), buffer pH 6.5 to pH 7.0, read-out: Permeability coefficient (P), Example 5
[8] = membrane of Comparative Example 2 (phosphatidylcholine and 1,9-decadiene 2:98), buffer pH 6.5 to pH 7.0, read-out: Permeability coefficient (P), Comparative Example 2
[9] = membrane of Example 2 (phosphatidylcholine 0.75, phosphatidylethanolamine 0.75, phosphatidylserine 0.25, phosphatidylinositol 0.25, cholesterol 1 %, w/w in 1,7-octadiene), pH 6.5, read-out: Permeability coefficient (P), Example 2

Structure (SMILES) | Papp at 0.5 mmol/L [1, 3] [×10⁻⁶ cm/s] | Permeability coefficient (P), Comparative Example 1 ([1]; pH 6.5) | Permeability coefficient (P), Example 2 [1, 4] | Human intestinal absorption (Fa, %) [2] | Papp at 0.5 mmol/L [1, 5] [×10⁻⁶ cm/s] | Papp at 0.5 mmol/L [1, 6] [×10⁻⁶ cm/s] | Papp at 0.5 mmol/L [1, 7] [×10⁻⁶ cm/s] | Papp at 0.5 mmol/L [1, 8] [×10⁻⁶ cm/s] | Papp at 0.5 mmol/L [1, 9] [×10⁻⁶ cm/s]
CO/N=C(\C(=O)N[C@@H]1C(=O)N2C(C(=O)O)=C(CSc3nc(=O)c(=O)[nH]n3C)CS[C@H]12)c1csc(N)n1 [Ceftriaxone] | 1.37 | 1.66E-08 | 2.25E-07 | 1*^4% |  |  |  |  | 
CC(=O)Nc1ccc(O)cc1 [Acetaminophen] | 8.17 | 4.98E-08 | 1.79E-06 | 80*^1% |  |  |  |  | 
NS(=O)(=O)c1cc2c(cc1Cl)NCNS2(=O)=O [Hydrochlorothiazide] | 1.34 | 8.64E-07 |  |  | 5.86 | 1.52 | 1.82 | 0.751 | 1.55
CC(=O)Nc1ccc(OCC(O)CNC(C)C)cc1 (stereo not shown) [Practolol] | 1.01 | 4.36E-07 | 1.53E-06 |  |  |  |  |  | 
CCN1CCCC1CNC(=O)c1cc(S(N)(=O)=O)ccc1OC (stereo not shown) [Sulpiride] | 1.34 | 8.33E-08 | 2.23E-06 |  |  |  |  |  | 
CCCC(=O)Nc1ccc(OCC(O)CNC(C)C)c(C(C)=O)c1 (stereo not shown) [Acebutolol] | 4.45 | 1.91E-07 | 3.67E-06 | 90*^1% |  |  |  |  | 
C[C@H]1c2cccc(O)c2C(=O)C2=C(O)[C@]3(O)C(=O)C(C(N)=O)=C(O)[C@@H](N(C)C)[C@@H]3[C@@H](O)[C@@H]21 [Doxycycline] | 7.07 | 1.52E-06 | 2.35E-05 | 95*^3% |  |  |  |  | 
N=C(N)N/N=C/c1c(Cl)cccc1Cl [Guanabenz] | 19.5 | 4.14E-06 | 1.04E-05 | 75*^1% |  |  |  |  | 
Nc1ccn([C@@H]2O[C@H](CO)[C@@H](O)[C@@H]2O)c(=O)n1 [Cytarabine] | 0.889 | 3.87E-08 |  |  |  |  |  |  | 0.0387
CC(C(=O)O)c1cccc(C(=O)c2ccccc2)c1 (stereo not shown) [Ketoprofen] |  |  |  |  | 50.5 | 13.6 | 16.8 | 9.22 | 
CC(C)NCC(O)COc1cccc2[nH]ccc12 (stereo not shown) [Pindolol] | 11 | 2.71E-08 | 7.94E-06 | 90*^1% |  |  |  |  | 
CO/N=C(\C(=O)N[C@@H]1C(=O)N2C(C(=O)O)=C(COC(N)=O)CS[C@H]12)c1ccco1 [Cefuroxime] | 0.16 | 2.76E-08 |  | 5*^1% |  |  |  |  | 0.0443
CC(C)(C)NC[C@H](O)COc1nsnc1N1CCOCC1 [Timolol] | 9.13 | 1.05E-06 | 1.19E-05 | 90*^1% |  |  |  |  | 
CC(C)(C)NCC(O)COc1cccc2c1CC(O)C(O)C2 (stereo not shown) [Nadolol] | 3.28 | 5.26E-07 |  | 35*^1% |  |  |  |  | 
O=C(O)c1cc(/N=N/c2ccc(S(=O)(=O)Nc3ccccn3)cc2)ccc1O [Sulfasalazine] | 3.24 | 3.12E-07 | 1.07E-06 | 65*^1% |  |  |  |  | 
N=C(N)NC(=O)c1nc(Cl)c(N)nc1N [Amiloride] | 2.69 | 6.10E-08 | 6.73E-07 | 50*^3% |  |  |  |  | 
CC(C)NCC(O)COc1cccc2ccccc12 (stereo not shown) [Propranolol] |  |  |  |  | 43.8 | 21.5 | 24.6 | 12.5 | 
CN(C)[C@@H]1C(O)=C(C(N)=O)C(=O)[C@@]2(O)C(O)=C3C(=O)c4c(O)cccc4[C@@](C)(O)[C@H]3[C@H](O)[C@@H]12 [Oxytetracycline] | 3.31 | 8.31E-07 | 5.87E-06 | 60*^3% |  |  |  |  | 
CC[C@H](C)C(=O)O[C@H]1C[C@H](O)C=C2C=C[C@H](C)[C@H](CC[C@@H](O)C[C@@H](O)CC(=O)O)[C@H]21 [Pravastatin] | 2.69 | 7.21E-08 | 6.12E-07 | 34*^1% |  |  |  |  | 
O=C1CC[C@@]2(O)[C@H]3Cc4ccc(O)c5c4[C@@]2(CCN3CC2CC2)[C@H]1O5 [Naltrexone] | 11.2 | 9.61E-06 | 4.50E-06 |  |  |  |  |  | 
CNC(=C[N+](=O)[O-])NCCSCc1ccc(CN(C)C)o1 [Ranitidine] | 1.22 | 1.34E-07 | 2.19E-06 |  |  |  |  |  | 
COCCc1ccc(OCC(O)CNC(C)C)cc1 (stereo not shown) [Metoprolol] | 9.42 | 7.49E-07 | 6.88E-06 |  |  |  |  |  | 
NS(=O)(=O)c1cc2c(cc1Cl)N=CNS2(=O)=O [Chlorothiazide] | 2.24 | 4.98E-08 | 2.71E-07 |  |  |  |  |  | 
CCOC(=O)[C@H](CCc1ccccc1)N[C@@H](C)C(=O)N1CCC[C@H]1C(=O)O [Enalapril] | 0.802 | 1.09E-06 |  | 65*^3% |  |  |  |  | 1.37
